Calls of active or inactive are those of the source. The rule behind the calls is not given here.
Key:
[1] = Inhibition of beta amyloid protein 42 in HEK cell lines overexpressing APP695 at 40 uM; format: functional; details: Homo sapiens, HEK293
[2] = biological target: T1, Gamma-secretase (Homo sapiens) (UniProt Q96BI3+Q9NZ42+Q8WW43+P49768+Q92542+P49810); experiment: Inhibition of beta amyloid protein 42 in SH-SY5Y cell lines overexpressing SPA4CT at 30 uM; format: functional, cell-based
Mus musculus [3] = experiment: Drug level in mouse brain at 50 mg/kg, po; format: ADME, organism-based; parameters: dose 50 mg/kg, route oral; details: in vivo, read-out: Drug uptake
Mus musculus [4] = experiment: Drug level in mouse plasma at 50 mg/kg, po; format: ADME, organism-based; parameters: dose 50 mg/kg, route oral; details: in vivo, read-out: Drug uptake
[5] = Ratio of drug level in brain against plasma in mice at 50 mg/kg, po; format: ADME, organism-based; parameters: dose 50 mg/kg, route oral; details: mouse, brain and plasma, read-out: BBR
[6] = Inhibition of beta amyloid protein 42 in HEK cell lines overexpressing APP695 at 100 uM; format: functional; details: Homo sapiens, HEK293
HEK293 = experiment: Inhibition of beta amyloid protein 40 in HEK cell lines overexpressing APP695; format: functional, cell-based; details: Homo sapiens
[7] = biological target: T1, Gamma-secretase (Homo sapiens); details: SH-SY5Y, 300 uM
Description: Inhibition of beta amyloid protein 42 in SH-SY5Y cell lines overexpressing SPA4CT at 300 uM

[8] = biological target: T1, Gamma-secretase (Homo sapiens); experiment: Inhibition of beta amyloid protein 42 in SH-SY5Y cell lines overexpressing SPA4CT at 100 uM; format: functional, cell-based
[9] = biological target: T1, Gamma-secretase (Homo sapiens); experiment: Inhibition of NOTCH receptor cleavage at 200 uM; format: functional
[10] = Oral bioavailability in monkey at 2 mg/kg, po; format: ADME, organism-based, Macaca mulatta; details: rhesus monkey, in vivo
[11] = Volume of distribution in rat at 2 mg/kg, iv; format: ADME, organism-based; parameters: dose 2 mg/kg, route intravenous; details: in vivo, read-out: Vdss
[12] = Half life in rat at 2 mg/kg, iv; format: ADME, organism-based; parameters: dose 2 mg/kg, route intravenous; details: in vivo
[13] = Cmax in rat at 2 mg/kg, po; format: ADME, organism-based; parameters: dose 2 mg/kg, route oral; details: in vivo
[14] = Tmax in rat at 2 mg/kg, po; format: ADME, organism-based; parameters: dose 2 mg/kg, route oral; details: in vivo
[15] = Oral bioavailability in rat at 2 mg/kg, po; format: ADME, organism-based; details: in vivo
[16] = Clearance in mouse at 2 mg/kg, iv; format: ADME, organism-based; parameters: dose 2 mg/kg, route intravenous; details: in vivo
[17] = Volume of distribution in mouse at 2 mg/kg, iv; format: ADME, organism-based; parameters: dose 2 mg/kg, route intravenous; details: in vivo, read-out: Vdss
[18] = Half life in mouse at 2 mg/kg, iv; format: ADME, organism-based; parameters: dose 2 mg/kg, route intravenous; details: in vivo
[19] = Cmax in mouse at 2 mg/kg, po; format: ADME, organism-based; parameters: dose 2 mg/kg, route oral; details: in vivo
[20] = biological target: Prostaglandin G/H synthase 1 (Homo sapiens, UniProt P23219); experiment: Inhibition of COX1 in human whole blood; format: functional, tissue-based
[21] = Tmax in mouse at 2 mg/kg, po; format: ADME, organism-based; parameters: dose 2 mg/kg, route oral; details: in vivo
[22] = Oral bioavailability in mouse at 2 mg/kg, po; format: ADME, organism-based; details: in vivo
[23] = Clearance in dog at 2 mg/kg, iv; format: ADME, organism-based, Canis lupus familiaris; parameters: dose 2 mg/kg, route intravenous; details: in vivo
[24] = Volume of distribution in dog at 2 mg/kg, iv; format: ADME, organism-based, Canis lupus familiaris; parameters: dose 2 mg/kg, route intravenous; details: in vivo, read-out: Vdss
[25] = Half life in dog at 2 mg/kg, iv; format: ADME, organism-based, Canis lupus familiaris; parameters: dose 2 mg/kg, route intravenous; details: in vivo
[26] = Cmax in dog at 2 mg/kg, po; format: ADME, organism-based, Canis lupus familiaris; parameters: dose 2 mg/kg, route oral; details: in vivo
[27] = Tmax in dog at 2 mg/kg, po; format: ADME, organism-based, Canis lupus familiaris; parameters: dose 2 mg/kg, route oral; details: in vivo
[28] = Oral bioavailability in dog at 2 mg/kg, po; format: ADME, organism-based, Canis lupus familiaris; details: in vivo
[29] = Clearance in monkey at 2 mg/kg, iv; format: ADME, organism-based, Macaca mulatta; parameters: dose 2 mg/kg, route intravenous; details: rhesus monkey, in vivo
[30] = Volume of distribution in monkey at 2 mg/kg, iv; format: ADME, organism-based, Macaca mulatta; parameters: dose 2 mg/kg, route intravenous; details: rhesus monkey, in vivo, read-out: Vdss
[31] = Half life in monkey at 2 mg/kg, iv; format: ADME, organism-based, Macaca mulatta; parameters: dose 2 mg/kg, route intravenous; details: rhesus monkey, in vivo
[32] = Cmax in monkey at 2 mg/kg, po; format: ADME, organism-based, Macaca mulatta; parameters: dose 2 mg/kg, route oral; details: rhesus monkey, in vivo
[33] = Tmax in monkey at 2 mg/kg, po; format: ADME, organism-based, Macaca mulatta; parameters: dose 2 mg/kg, route oral; details: rhesus monkey, in vivo
Mus musculus [34] = experiment: Decrease in beta amyloid protein 42 level in Tg2576 transgenic mouse at 21 mg/kg relative to control; format: functional; parameters: scale not given: the % may be the effect or the level left
Mus musculus [35] = experiment: Decrease in beta amyloid protein 40 level in Tg2576 transgenic mouse at 21 mg/kg relative to control; format: functional; parameters: scale not given: the % may be the effect or the level left
[36] = Clearance in rat at 2 mg/kg, iv; format: ADME, organism-based; parameters: dose 2 mg/kg, route intravenous; details: in vivo
[37] = biological target: T1, Gamma-secretase (Homo sapiens); experiment: Inhibition of beta amyloid protein 42 in SH-SY5Y cell lines overexpressing SPA4CT at 600 uM; format: functional, cell-based

Prostaglandin G/H synthase 1, sequence (P23219 whole entry): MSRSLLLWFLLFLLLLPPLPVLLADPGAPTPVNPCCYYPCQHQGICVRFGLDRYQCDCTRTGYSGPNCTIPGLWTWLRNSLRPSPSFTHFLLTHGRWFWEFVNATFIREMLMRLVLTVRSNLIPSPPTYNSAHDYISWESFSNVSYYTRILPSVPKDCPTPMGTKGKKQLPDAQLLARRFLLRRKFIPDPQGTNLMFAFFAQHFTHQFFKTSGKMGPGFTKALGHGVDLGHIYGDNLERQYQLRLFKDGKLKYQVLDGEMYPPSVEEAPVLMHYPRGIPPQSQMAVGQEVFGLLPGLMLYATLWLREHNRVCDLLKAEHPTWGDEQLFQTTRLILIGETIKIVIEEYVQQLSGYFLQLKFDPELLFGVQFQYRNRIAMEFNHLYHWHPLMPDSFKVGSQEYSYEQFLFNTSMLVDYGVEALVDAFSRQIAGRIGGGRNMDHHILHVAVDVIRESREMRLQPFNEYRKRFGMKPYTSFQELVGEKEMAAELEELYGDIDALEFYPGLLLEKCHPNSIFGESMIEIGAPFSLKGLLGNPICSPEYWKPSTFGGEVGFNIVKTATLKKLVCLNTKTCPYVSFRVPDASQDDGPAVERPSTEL

## CSc1ccc(/C=C2/C(C)=C(CC(=O)O)c3cc(F)ccc32)cc1 [SULINDAC SULFIDE]
[1]
  inhibition at 40 µM: 54%
[2]
  inhibition: 73%
Mus musculus [3]
  concentration: 1.7 µM
Mus musculus [4]
  concentration: 296 µM
[5]
  Kp: 0.006

## CC1=C(CC(=O)O)c2cc(F)ccc2/C1=C\c1ccc(S(C)(=O)=O)cc1 [EXISULIND]
[1]
  inhibition at 40 µM: 0%
[2]
  inhibition: 9%

## COc1ccc2c(c1)c(C(C)(C)C(=O)O)c(C)n2C(=O)c1ccc(Cl)cc1
[6]
  inhibition at 100 µM: 2%
HEK293
  inhibition: inactive

## COc1ccc2cc([C@H](C)C(=O)O)ccc2c1 [NAPROXEN]
Mus musculus [3]
  concentration: 27 µM
Mus musculus [4]
  concentration: 887 µM
[5]
  Kp: 0.03
[7]
  inhibition: 3%

## C[C@H](C(=O)O)c1ccc(-c2ccccc2)c(F)c1 [ESFLURBIPROFEN]
[6]
  inhibition at 100 µM: 65%
[8]
  inhibition: 37%

## Cc1cccc(Nc2ccccc2C(=O)O)c1C [MEFENAMIC ACID]
Mus musculus [3]
  concentration: 2.7 µM
Mus musculus [4]
  concentration: 87 µM
[5]
  Kp: 0.03

## COc1ccc2cc(C(C)(C)C(=O)O)ccc2c1
[6]
  inhibition at 100 µM: 0%
HEK293
  inhibition: inactive

## CC(C)(C(=O)O)c1ccc2c(c1)[nH]c1ccc(Cl)cc12
[6]
  inhibition at 100 µM: 40%
HEK293
  inhibition: inactive

## CC(C)(C(=O)O)c1ccc(-c2ccccc2)c(F)c1
[9]
  Activity: inactive
[10]
  bioavailability: 90%
[6]
  inhibition at 100 µM: 67%
HEK293
  inhibition: inactive
[11]
  Vd: 0.15 L/kg
[12]
  half-life: 3.4 h
[13]
  Cmax: 15.2 µM
[14]
  Tmax: 2 h
[15]
  bioavailability: 79%
[16]
  clearance: 0.7 mL/min/kg
[17]
  Vd: 0.22 L/kg
[18]
  half-life: 4.6 h
[19]
  Cmax: 24.4 µM
[20]
  IC50: > 100 µM
[21]
  Tmax: 0.25 h
[22]
  bioavailability: 81%
[23]
  clearance: 0.28 mL/min/kg
[24]
  Vd: 0.11 L/kg
[25]
  half-life: 11.3 h
[26]
  Cmax: 76.4 µM
[27]
  Tmax: 0.33 h
[28]
  bioavailability: 87%
[29]
  clearance: 3.8 mL/min/kg
[30]
  Vd: 0.3 L/kg
[31]
  half-life: 8 h
[32]
  Cmax: 27.3 µM
[33]
  Tmax: 0.25 h
Mus musculus [34]
  Activity: 18%
Mus musculus [35]
  Activity: 13%
Mus musculus [3]
  concentration: 13 µM
Mus musculus [4]
  concentration: 849 µM
[5]
  Kp: 0.02
[36]
  clearance: 1.3 mL/min/kg

## CC(C)(C(=O)O)c1cccc(Oc2ccccc2)c1
[6]
  inhibition at 100 µM: 0%
HEK293
  inhibition: inactive

## CC(C)Cc1ccc(C(C)C(=O)O)cc1 (stereo not drawn) [IBUPROFEN]
[6]
  inhibition at 100 µM: 28%
[37]
  inhibition: 41%
Mus musculus [34]
  Activity: 20%
Mus musculus [35]
  Activity: 11%
Mus musculus [3]
  concentration: 18 µM
Mus musculus [4]
  concentration: 592 µM
[5]
  Kp: 0.03

## O=C(O)Cc1ccccc1Nc1c(Cl)cccc1Cl
[8]
  inhibition: 17%

## CC(C(=O)O)c1cccc(Oc2ccccc2)c1 (stereo not drawn) [FENOPROFEN]
Mus musculus [3]
  concentration: 41 µM
Mus musculus [4]
  concentration: 1360 µM
[5]
  Kp: 0.03

## CC(=O)Nc1ccc(O)cc1 [ACETAMINOPHEN]
Mus musculus [3]
  concentration: 43 µM
Mus musculus [4]
  concentration: 64 µM
[5]
  Kp: 0.68

## C[C@@H](C(=O)O)c1ccc(-c2ccccc2)c(F)c1 [TARENFLURBIL]
[6]
  inhibition at 100 µM: 51%
[8]
  inhibition: 23%
Mus musculus [3]
  concentration: 41 µM
Mus musculus [4]
  concentration: 1190 µM
[5]
  Kp: 0.04

## COc1ccc2c(c1)c(CC(=O)O)c(C)n2C(=O)c1ccc(Cl)cc1 [INDOMETHACIN]
[6]
  inhibition at 100 µM: 73%
[8]
  inhibition: 53%
Mus musculus [3]
  concentration: 3 µM
Mus musculus [4]
  concentration: 266 µM
[5]
  Kp: 0.01

## CC(C)Cc1ccc(C(C)(C)C(=O)O)cc1
[6]
  inhibition at 100 µM: 3%
HEK293
  inhibition: inactive

From ChEMBL document CHEMBL1146967, “The geminal dimethyl analogue of Flurbiprofen as a novel Abeta42 inhibitor and potential Alzheimer's disease modifying agent” (Bioorg Med Chem Lett, 2006)
